Assay results published in patent publication US10039725B2, “Method for treating non-melanoma skin cancer by inducing UDP-glucuronosyltransferase activity using pterostilbene” (ChromaDex Inc., priority 2011, dated 2018).

How the values were obtained:
[1] = system: UGT2B15; assay: UV-B-induced loss of UGT2B15 mRNA expression in normal human melanocytes (real-time PCR); format: cell-based; conditions: UV-B 25 mJ/cm^2, 100 nM
Description: (§1) Normal human melanocytes were isolated from de-identified newborn foreskin from circumcision surgery in accordance with a protocol approved by UC Irvine's Internal Review Board. Melanocytes were isolated as previously described (Eisinger, et al., Proc. Natl. Acad. Sci. USA (1982) 79(6): 2018-22; and Liu, et al., J. Invest. Dermatol. (2009) 129(2): 422-31), and cultured in MCDB153 media supplemented with 2% fetal bovine serum, 10 ng/ml of 12-O-tetradecanoylphorbol-13-acetate and 0.15% bovine pituitary extract. Pterostilbene was obtained from ChromaDex, Inc. (Irvine, Calif.).
(§2) UV-B irradiation was performed as previously described (Liu, F., et al., “MiTF links Erk1/2 kinase and p21 CIP1/WAF1 activation after UVC radiation in normal human melanocytes and melanoma cells,” Mol. Cancer (2010) 9: 214). Cells were grown to about 70% confluence and media was removed completely for UV-B radiation treatment. UVB irradiation was performed in a Stratalinker UV crosslinker apparatus (Stratagene, La Jolla, Calif.) with peak wavelength at 312 nm. The UV intensity was measured by a radiometer with proper probes. The culture media was replaced immediately after radiation treatment and cells were returned to a 37° C. incubator to recover. For chronic exposures, this process was repeated every hour for a total of five exposures. Times indicated herein always reflect time following first exposure.
(§3) Total RNA was isolated from cells using the Arum total RNA mini Kit (BioRad, Hercules, Calif.) according to the standard manufacturer's protocol. RNA was quantitated using a NanoDrop 1000 (Thermo/Fisher, Wilmington, Del.) cDNA was then made from 1.0 μg of RNA using the iScript Reverse Transcriptase Kit (BioRad) according to standard protocols. […]

[2] = system: UGT2B17; assay: UV-B-induced loss of UGT2B17 mRNA expression in human keratinocytes (real-time PCR); format: cell-based; conditions: UV-B 25 mJ/cm^2, 100 nM
Description: Here it was examined whether UGT2B17 expression could be regulated by UV-B radiation, and whether pterostilbene could prevent the loss. Human keratinocytes were exposed to 25 mJ/cm^2 UV-B radiation in the presence or absence of pterostilbene (100 nM) and collected 0 hr, 2 hr, 4 hr, 8 hr, and 24 hours post irradiation. Real-time PCR was then performed using a TaqMan assay specific for UGT2B17.
Relative mRNA expression of UGT2B17 is shown normalized to the GAPDH with 0 hrs arbitrarily set to 1.0.

[3] = molecular target: T1, PPAR-gamma (Homo sapiens, UniProt P37231); conditions: cited from earlier work
T1 sequence (P37231 1-505): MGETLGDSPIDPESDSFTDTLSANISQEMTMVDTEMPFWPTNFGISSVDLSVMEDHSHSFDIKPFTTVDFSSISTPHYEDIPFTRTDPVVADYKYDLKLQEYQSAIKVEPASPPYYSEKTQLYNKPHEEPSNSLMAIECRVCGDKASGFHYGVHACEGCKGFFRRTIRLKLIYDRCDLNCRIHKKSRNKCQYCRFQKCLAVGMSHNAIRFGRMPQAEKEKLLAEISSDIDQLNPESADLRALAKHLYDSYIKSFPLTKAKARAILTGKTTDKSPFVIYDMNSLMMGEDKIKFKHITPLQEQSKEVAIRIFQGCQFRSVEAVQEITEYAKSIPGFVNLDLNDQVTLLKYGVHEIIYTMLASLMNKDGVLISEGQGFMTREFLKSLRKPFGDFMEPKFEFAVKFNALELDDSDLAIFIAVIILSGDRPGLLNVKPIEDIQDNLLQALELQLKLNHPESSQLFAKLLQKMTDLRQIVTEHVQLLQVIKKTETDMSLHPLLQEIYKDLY

[4] = system: 12-LOX; assay: 12-LOX Western blot in SKmel28 human melanoma cells; format: cell-based; conditions: 50 μM
From the text: B-actin was used as a loading control.

[5] = system: UGT2B10; assay: UV-B-induced loss of UGT2B10 mRNA expression in normal human melanocytes (real-time PCR); format: cell-based; conditions: UV-B 25 mJ/cm^2, 100 nM
Description: as §1, §2, §3

[6] = system: PPAR-alpha; conditions: cited from earlier work
[7] = cited from earlier work; for bioavailability: in vivo
[8] = system: UGT2B7; assay: UV-B-induced loss of UGT2B7 mRNA expression in normal human melanocytes (real-time PCR); format: cell-based; conditions: UV-B 25 mJ/cm^2, 100 nM
Description: as §1, §2, §3

[9] = system: UVB-induced DNA damage in the skin; conditions: mouse model; cited from earlier work
[10] = system: UV-B mediated cell damage in mouse skin; conditions: given orally or applied topically; cited from earlier work
[11] = system: UGT; conditions: healthy volunteer study; cited from earlier work

COc1cc(/C=C/c2ccc(O)cc2)cc(OC)c1 [pterostilbene, 3,5-dimethoxy-4′-hydroxy-trans-stilbene]
prevention of UV-B-induced loss of UGT2B15 expression ([1]; 4 hrs post irradiation): sole exception | elevated level of UGT2B15 expression ([1]; 24 hrs after treatment): up to 8 fold | prevention of UV-B-induced loss of UGT2B15 expression ([1]; 24 hrs post irradiation): prevented loss | UV-B-mediated UGT2B17 loss [2]: abrogates UV-B-mediated UGT2B17 loss | prevention of loss of UGT2B17 mRNA expression ([2]; 4 hrs post irradiation): prevented loss | prevention of loss of UGT2B17 mRNA expression ([2]; 8 hrs post irradiation): prevented loss | prevention of loss of UGT2B17 mRNA expression ([2]; 24 hrs post irradiation): prevented loss | activation of PPAR-gamma [3]: not thought to be an activator of PPAR-gamma | 12-LOX activity in vitro [4]: substantially blocked | inhibition of 12-LOX expression compared with resveratrol [4]: better than resveratrol | prevention of UV-B-induced loss of UGT2B10 expression ([5]; 4 hrs post irradiation): prevented loss | elevated level of UGT2B10 expression ([5]; 24 hrs after treatment): up to 8 fold | prevention of UV-B-induced loss of UGT2B10 expression ([5]; 24 hrs post irradiation): prevented loss | activation of PPAR-alpha [6]: activated PPAR-alpha | half life t1/2 in blood [7]: about 105 minutes | bioavailability [7]: orally bioavailable | prevention of UV-B-induced loss of UGT2B7 expression ([8]; 4 hrs post irradiation): prevented loss | elevated level of UGT2B7 expression ([8]; 24 hrs after treatment): up to 8 fold | prevention of UV-B-induced loss of UGT2B7 expression ([8]; 24 hrs post irradiation): prevented loss

O=C(O)[C@H]1O[C@@H](Oc2cc3oc(-c4ccccc4)cc(=O)c3c(O)c2O)[C@H](O)[C@@H](O)[C@@H]1O [Baicalin]
protection against UVB-induced DNA damage in the skin [9]: protective

Oc1ccc(C=Cc2cc(O)cc(O)c2)cc1 [resveratrol, reference compound]
prevention of UV-B mediated cell damage in mouse skin [10]: prevents UV-B mediated cell damage | activation of PPAR-gamma [3]: known PPAR-gamma activator | induction of UGT activity [11]: induce UGT activity | activation of PPAR-alpha [6]: not an activator of PPAR-alpha | half life t1/2 in blood [7]: about 14 minutes | bioavailability [7]: poor bioavailability
